US9440969B2, “Compounds and methods for kinase modulation, and indications therefor” (PLEXXIKON INC., priority 2009, dated 2016)

Legend:
[1] = system: COLO205 colon adenocarcinoma (B-Raf V600E mutation); experiment: COLO205 cell growth inhibition (ATPlite luminescence); assay type: cell-based; details: Homo sapiens, COLO 205, 72 h, COLO205 cells, incubated 3 days with compound
Description: Compounds are assessed in a variety of cell based assays. For example human cell lines with B-Raf V600E mutation (A375 melanoma, SKMEL3 melanoma, and COLO205 colon adenocarcinoma), as well as tumorigenic cell lines with wild-type B-RAF (SW620 colon adenocarcinoma) or with Ras mutations (SKMEL2 melanoma and IPC298 melanoma). Similar assays may be used to assess additional tumorigenic cell lines with Ras mutations, including, but not limited to, M202, M207, M243, M244, M296, S117, HCT116, HCT15, DLD1, MiaPaCa, A549, NCI-H23, NCI-H460, HOP62, MDA-MB231, Hs-578T, HL60, MOLT-4, and CCRF-CEM.
On day 1, cells are counted, then centrifuged in a conical tube for 5 minutes at 1000 rpm. The supernatant is removed and cells are re-suspended as follows: • SW620 (ATCC catalog #CCL-27): resuspend in Leibovitz's L-15 medium, 2 mM L-glutamine, 10% fetal bovine serum to 6×10^4 cells/mL. • A375 (ATCC catalog #CRL-1619): resuspend in Dulbecco's modified Eagle's medium, 4 mM L-glutamine, 4.5 g/L D-glucose, 10% fetal bovine serum to 6×10^4 cells/mL. • COLO205 (ATCC catalog #CCL-222): resuspend in RPMI 1640, 2 mM L-glutamine, 1.5 g/L sodium bicarbonate, 4.5 g/L D-glucose, 10 mM HEPES, 1.0 mM sodium pyruvate, 10% fetal bovine serum to 6×10^4 cells/mL. • SKMEL2 (ATCC catalog #HTB-68): resuspend in Minimum Eagle essential medium, 2 mM L-glutamine, 1.5 g/L sodium bicarbonate, 0.1 mM non-essential amino acids, 1.0 mM sodium pyruvate, 10% fetal bovine serum to 6×10^4 cells/mL. • SKMEL3 (ATCC catalog #HTB-69): resuspend in McCoy's 5A medium, 1.5 mM L-glutamine, 15% fetal bovine serum to 6×10^4 cells/mL. • IPC298 (DSMZ catalog #ACC 251): resuspend in RPMI 1640, 2 mM L-glutamine, 10% fetal bovine serum to 6×10^4 cells/mL.
The cells are plated, 50 μL in each well of a 96-well dish (Corning 3610) and incubated at 37° C. in 5% CO2 overnight, cells plated to a final concentration of cells as follows:
On day 2, compound at a maximum concentration of 5 mM is serially diluted 1:3 (e.g. 10 μL with 30 μL dimethyl sulfoxide) for a total of 8 point titration with DMSO as a control. A 1 μL aliquot of each dilution point and control is added to 249 μL growth media and 50 μL is added to a well containing cells, providing 10 μM compound at the maximum concentration point. The cells are incubated for 3 days at 37° C. in 5% CO2.
On day 5, ATPlite 1 step Luminescence Assay System (Perkin Elmer #6016739) is brought to room temperature along with the cell cultures. ATPlite is added 25 μL to each well, shake for 2 minutes, and the cells are incubated at room temperature for 10 minutes, then luminescence is read on Safire reader. The measured luminescence correlates directly with cell number, such that the reading as a function of compound concentration is used to determine the IC50 value.
It is understood that the results of these assays may vary as assay conditions are varied. Inhibition levels determined under the conditions described herein represent a relative activity for the compounds tested under the specific conditions employed. The cell based assays are likely to show variability due to the complexity of the system and the sensitivity thereof to any changes in the assay conditions. […] Results for compounds that are tested and show substantially no inhibition below the highest tested concentration are represented as “-” in the tables below. In some instances, the compounds were not tested in all of the assays, or assay results were not valid, as indicated by NA in the tables below.

B-Raf V600E = B-Raf V600E (Homo sapiens, UniProt P15056, V600E); experiment: B-Raf V600E kinase activity assay (AlphaScreen, biotin-MEK1 substrate); details: 100 μM ATP, 100 nM biotin-MEK1, 45 minutes at room temperature, read-out: Biochemical activity (IC50 μM) V600E
How it was run: (§1)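 AlphaScreen detection of phospho-MEK1 uses anti-phospho-MEK1/2 antibody and donor/acceptor beads, incubated 3 h. The kinase step runs 45 min at room temperature with 0.1 ng enzyme, 100 nM biotin-MEK1 and 100 μM ATP in 50 mM HEPES pH 7.0. IC50 is derived from eight compound concentrations.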

c-Raf-1 = c-Raf-1 (Homo sapiens, UniProt P04049); experiment: c-Raf-1 kinase activity assay (AlphaScreen, biotin-MEK1 substrate); details: 100 μM ATP, 100 nM biotin-MEK1, 45 minutes at room temperature; read-out: Biochemical activity (IC50 μM) c-Raf-1
How it was run: as §1

B-Raf = B-Raf (Homo sapiens, UniProt P15056); experiment: B-Raf kinase activity assay (AlphaScreen, biotin-MEK1 substrate); details: 100 μM ATP, 100 nM biotin-MEK1, 45 minutes at room temperature; read-out: Biochemical activity (IC50 μM) B-Raf
How it was run: as §1

c-Raf-1, sequence (P04049 whole entry Y340D/Y341D, form open): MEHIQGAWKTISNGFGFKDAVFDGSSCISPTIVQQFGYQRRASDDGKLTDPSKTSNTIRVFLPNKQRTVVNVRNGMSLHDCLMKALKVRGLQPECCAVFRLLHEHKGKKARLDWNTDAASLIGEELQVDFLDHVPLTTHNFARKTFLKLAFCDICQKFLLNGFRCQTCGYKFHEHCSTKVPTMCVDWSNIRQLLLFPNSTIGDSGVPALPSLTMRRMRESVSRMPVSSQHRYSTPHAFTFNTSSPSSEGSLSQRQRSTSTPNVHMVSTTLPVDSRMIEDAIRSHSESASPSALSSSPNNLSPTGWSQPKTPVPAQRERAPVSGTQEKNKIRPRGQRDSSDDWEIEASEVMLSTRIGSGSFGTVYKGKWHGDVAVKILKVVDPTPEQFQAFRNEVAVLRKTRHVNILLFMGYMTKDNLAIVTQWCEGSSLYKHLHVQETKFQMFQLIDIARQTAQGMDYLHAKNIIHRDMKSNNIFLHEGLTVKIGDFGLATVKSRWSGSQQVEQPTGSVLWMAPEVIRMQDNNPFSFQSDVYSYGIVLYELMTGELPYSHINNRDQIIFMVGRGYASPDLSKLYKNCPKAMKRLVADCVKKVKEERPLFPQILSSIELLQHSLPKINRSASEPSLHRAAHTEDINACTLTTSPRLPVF
B-Raf, sequence (P15056 whole entry): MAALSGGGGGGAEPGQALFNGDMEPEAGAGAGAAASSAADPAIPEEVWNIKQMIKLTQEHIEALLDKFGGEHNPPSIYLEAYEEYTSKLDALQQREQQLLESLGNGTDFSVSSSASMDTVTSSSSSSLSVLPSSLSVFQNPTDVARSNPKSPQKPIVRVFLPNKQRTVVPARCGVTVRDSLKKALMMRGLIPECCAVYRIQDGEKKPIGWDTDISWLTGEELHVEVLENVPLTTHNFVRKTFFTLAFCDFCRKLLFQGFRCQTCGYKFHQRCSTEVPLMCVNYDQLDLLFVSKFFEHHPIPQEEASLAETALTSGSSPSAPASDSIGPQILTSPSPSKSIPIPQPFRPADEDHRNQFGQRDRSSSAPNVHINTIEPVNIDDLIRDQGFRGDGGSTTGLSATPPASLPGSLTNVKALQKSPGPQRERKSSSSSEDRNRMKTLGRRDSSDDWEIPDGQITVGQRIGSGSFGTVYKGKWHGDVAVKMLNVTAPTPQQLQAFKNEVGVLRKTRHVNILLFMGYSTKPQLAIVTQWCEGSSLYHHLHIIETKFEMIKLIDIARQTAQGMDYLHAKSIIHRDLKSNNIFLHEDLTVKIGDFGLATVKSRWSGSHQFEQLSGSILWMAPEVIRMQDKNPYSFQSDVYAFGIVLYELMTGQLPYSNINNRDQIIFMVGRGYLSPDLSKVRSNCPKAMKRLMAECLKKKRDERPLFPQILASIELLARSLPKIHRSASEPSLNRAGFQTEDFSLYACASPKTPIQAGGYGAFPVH
B-Raf V600E, sequence (P15056 whole entry V600E): as the sequence (P15056 whole entry) above, with V600E counted along it

| Compound | IC50 [1] [µM] | IC50 (B-Raf V600E) [µM] | IC50 (c-Raf-1) [µM] | IC50 (B-Raf) [µM] |
| --- | --- | --- | --- | --- |
| CCCS(=O)(=O)Nc1ccc(F)c(C(=O)c2c[nH]c3ncc(-c4ccc(-c5noc(C)n5)s4)cc23)c1F [P-1203, Propane-1-sulfonic acid (2,4-difluoro-3-{5-[5-(5-methyl-[1,2,4]oxadiazol-3-yl)-thiophen-2-yl]-1H-pyrrolo[2,3-b]pyridine-3-carbonyl}-phenyl)-amide] | > 1 | < 0.1 | < 0.1 | < 0.1 |
| CCCS(=O)(=O)Nc1ccc(F)c(C(=O)c2c[nH]c3ncc(-c4cn5ccc(C(F)(F)F)nc5n4)cc23)c1F [P-0022, Propane-1-sulfonic acid {2,4-difluoro-3-[5-(7-trifluoromethyl-imidazo[1,2-a]pyrimidin-2-yl)-1H-pyrrolo[2,3-b]pyridine-3-carbonyl]-phenyl}-amide] | > 1 | < 0.1 | < 0.1 | < 0.1 |
| CCCS(=O)(=O)Nc1ccc(F)c(C(=O)c2c[nH]c3ncc(-c4csc(-n5cccn5)n4)cc23)c1F [P-1103, Propane-1-sulfonic acid {2,4-difluoro-3-[5-(2-pyrazol-1-yl-thiazol-4-yl)-1H-pyrrolo[2,3-b]pyridine-3-carbonyl]-phenyl}-amide] | > 1 | < 0.1 | < 0.1 | < 0.1 |
| CCCS(=O)(=O)Nc1ccc(F)c(C(=O)c2c[nH]c3ncc(-c4cccc5[nH]ccc45)cc23)c1F [P-0019, Propane-1-sulfonic acid {2,4-difluoro-3-[5-(1H-indol-4-yl)-1H-pyrrolo[2,3-b]pyridine-3-carbonyl]-phenyl}-amide] | > 1 | < 0.1 | < 0.1 | < 0.1 |
| CCCS(=O)(=O)Nc1ccc(F)c(C(=O)c2c[nH]c3ncc(-c4cnc(-n5ccnc5C)s4)cc23)c1F [P-1105, Propane-1-sulfonic acid (2,4-difluoro-3-{5-[2-(2-methyl-imidazol-1-yl)-thiazol-5-yl]-1H-pyrrolo[2,3-b]pyridine-3-carbonyl}-phenyl)-amide] | < 1 | < 0.1 | < 0.1 | < 0.1 |

Second part, the compound after the results:

| IC50 [1] [µM] | IC50 (B-Raf V600E) [µM] | IC50 (c-Raf-1) [µM] | IC50 (B-Raf) [µM] | Compound |
| --- | --- | --- | --- | --- |
| < 1 | < 0.1 | < 0.1 | < 0.1 | CCCS(=O)(=O)Nc1ccc(F)c(C(=O)c2c[nH]c3ncc(-c4cnc(-n5ccnc5)s4)cc23)c1F [P-1104, Propane-1-sulfonic acid {2,4-difluoro-3-[5-(2-imidazol-1-yl-thiazol-5-yl)-1H-pyrrolo[2,3-b]pyridine-3-carbonyl]-phenyl}-amide] |
| < 1 | < 0.1 | < 0.1 | < 0.1 | CCCS(=O)(=O)Nc1ccc(F)c(C(=O)c2c[nH]c3ncc(-c4cnc(N)cn4)cc23)c1F [P-1603, Propane-1-sulfonic acid {3-[5-(5-amino-pyrazin-2-yl)-1H-pyrrolo[2,3-b]pyridine-3-carbonyl]-2,4-difluoro-phenyl}-amide] |
| < 1 | < 0.1 | < 0.1 | < 0.1 | CCCS(=O)(=O)Nc1ccc(F)c(C(=O)c2c[nH]c3ncc(-c4ccc5scnc5c4)cc23)c1F [P-0013, Propane-1-sulfonic acid [3-(5-benzothiazol-5-yl-1H-pyrrolo[2,3-b]pyridine-3-carbonyl)-2,4-difluoro-phenyl]-amide] |
| < 1 | < 0.1 | < 0.1 | < 0.1 | CCCS(=O)(=O)Nc1ccc(F)c(C(=O)c2c[nH]c3ncc(-c4cn5ccccc5n4)cc23)c1F [P-0021, Propane-1-sulfonic acid [2,4-difluoro-3-(5-imidazo[1,2-a]pyridin-2-yl-1H-pyrrolo[2,3-b]pyridine-3-carbonyl)-phenyl]-amide] |
| < 1 | < 0.1 | < 0.1 | < 0.1 | CCCS(=O)(=O)Nc1ccc(F)c(C(=O)c2c[nH]c3ncc(-c4ccc5[nH]nc(C)c5c4)cc23)c1F [P-0024, Propane-1-sulfonic acid {2,4-difluoro-3-[5-(3-methyl-1H-indazol-5-yl)-1H-pyrrolo[2,3-b]pyridine-3-carbonyl]-phenyl}-amide] |
